Laboratory results published in ChEMBL document CHEMBL4033668, “Inhibitors of cytochrome P450 (CYP) 1B1” (Eur J Med Chem, 2017).

Columns and labels:
[1] = biological target: T1, Cytochrome P450 1A1 (Homo sapiens, UniProt P04798); assay: Competitive inhibition of […] CYP1A1 expressed in supersomes coexpressing NADPH-CYP reductase using 7-Ethoxyresorufin as substrate measured every 5 mins for 30 mins in presence of NADPH by fluorescence assay; assay type: ADME; conditions: read-out: Ki
T1 sequence (P04798 whole entry): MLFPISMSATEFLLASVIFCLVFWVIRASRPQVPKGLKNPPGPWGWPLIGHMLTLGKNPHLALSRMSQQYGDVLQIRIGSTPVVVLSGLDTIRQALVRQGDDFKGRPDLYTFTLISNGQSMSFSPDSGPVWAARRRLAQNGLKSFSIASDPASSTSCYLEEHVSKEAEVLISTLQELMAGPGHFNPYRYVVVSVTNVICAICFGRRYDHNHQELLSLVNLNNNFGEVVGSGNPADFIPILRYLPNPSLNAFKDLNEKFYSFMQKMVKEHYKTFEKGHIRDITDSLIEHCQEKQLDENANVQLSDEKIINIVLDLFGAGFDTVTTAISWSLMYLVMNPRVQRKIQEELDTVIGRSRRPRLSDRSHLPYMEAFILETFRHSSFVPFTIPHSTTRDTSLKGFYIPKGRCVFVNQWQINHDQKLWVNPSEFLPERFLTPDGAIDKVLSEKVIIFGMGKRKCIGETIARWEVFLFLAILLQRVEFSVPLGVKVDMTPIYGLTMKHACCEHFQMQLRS

[2] = biological target: T2, Cytochrome P450 1A2 (Homo sapiens, UniProt P05177); assay: Competitive inhibition of […] CYP1A2 expressed in supersomes coexpressing NADPH-CYP reductase using 7-Ethoxyresorufin as substrate measured every 5 mins for 30 mins in presence of NADPH by fluorescence assay; assay type: ADME
T2 sequence (P05177 whole entry): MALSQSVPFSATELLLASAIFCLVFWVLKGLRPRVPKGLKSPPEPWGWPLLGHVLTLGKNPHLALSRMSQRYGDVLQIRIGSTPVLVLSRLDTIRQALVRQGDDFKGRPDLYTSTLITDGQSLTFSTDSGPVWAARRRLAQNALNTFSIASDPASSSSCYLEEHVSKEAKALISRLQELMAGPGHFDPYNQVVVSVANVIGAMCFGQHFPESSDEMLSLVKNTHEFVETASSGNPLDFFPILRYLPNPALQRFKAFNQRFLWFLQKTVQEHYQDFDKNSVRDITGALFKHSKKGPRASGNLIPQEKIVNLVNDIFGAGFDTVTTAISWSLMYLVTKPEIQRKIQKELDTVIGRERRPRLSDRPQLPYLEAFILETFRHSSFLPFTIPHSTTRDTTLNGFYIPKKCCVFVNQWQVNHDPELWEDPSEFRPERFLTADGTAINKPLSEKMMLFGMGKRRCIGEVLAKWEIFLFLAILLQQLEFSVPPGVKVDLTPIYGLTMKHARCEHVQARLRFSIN

[3] = biological target: T3, Cytochrome P450 1B1 (Homo sapiens, UniProt Q16678); assay: Competitive inhibition of […] CYP1B1 expressed in supersomes coexpressing NADPH-CYP reductase using 7-Ethoxyresorufin as substrate measured every 5 mins for 30 mins in presence of NADPH by fluorescence assay
T3 sequence (Q16678 whole entry): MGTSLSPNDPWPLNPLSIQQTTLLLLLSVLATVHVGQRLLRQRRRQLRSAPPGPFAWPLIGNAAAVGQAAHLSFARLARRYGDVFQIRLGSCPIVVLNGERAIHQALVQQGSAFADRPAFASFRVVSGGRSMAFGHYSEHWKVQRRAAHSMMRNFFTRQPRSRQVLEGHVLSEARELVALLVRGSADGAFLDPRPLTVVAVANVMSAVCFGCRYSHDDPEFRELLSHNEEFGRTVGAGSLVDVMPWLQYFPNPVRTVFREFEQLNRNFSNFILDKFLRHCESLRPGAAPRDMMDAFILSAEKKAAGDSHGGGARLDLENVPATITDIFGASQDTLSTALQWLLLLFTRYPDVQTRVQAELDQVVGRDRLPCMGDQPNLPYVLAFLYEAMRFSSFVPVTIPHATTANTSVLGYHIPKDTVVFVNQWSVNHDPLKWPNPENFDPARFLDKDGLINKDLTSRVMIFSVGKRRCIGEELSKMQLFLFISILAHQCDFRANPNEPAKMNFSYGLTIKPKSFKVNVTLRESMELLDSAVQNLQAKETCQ

[4] = biological target: T3, Cytochrome P450 1B1; assay: Inhibition of recombinant human CYP1B1 expressed in supersomes using ethoxyresorufin as substrate after 20 mins in presence of NADPH by fluorescence assay
[5] = biological target: T2, Cytochrome P450 1A2; assay: Inhibition of recombinant human CYP1A2 expressed in Escherichia coli DH5alpha using ethoxyresorufin as substrate preincubated for 3 mins followed by NADPH addition measured after 10 mins by spectrofluorometric assay; assay type: ADME
[6] = Competitive inhibition of […] CYP1 expressed in supersomes coexpressing NADPH-CYP reductase using 7-Ethoxyresorufin as substrate measured every 5 mins for 30 mins in presence of NADPH by fluorescence assay; assay type: ADME
[7] = biological target: T3, Cytochrome P450 1B1; assay: Inhibition of CYP1B1 in TCDD-exposed human MCF-7 cells using ethoxyresorufin as substrate after 20 mins in presence of NADPH by Lineweaver-Burk linear regression plot analysis
[8] = biological target: T3, Cytochrome P450 1B1; assay: Inhibition of CYP1B1 in TCDD-exposed human MCF-7 cells using ethoxyresorufin as substrate after 20 mins in presence of NADPH by spectrofluorimetric analysis
[9] = biological target: T1, Cytochrome P450 1A1; assay: Inhibition of CYP1A1 in TCDD-exposed human MCF-7 cells using ethoxyresorufin as substrate after 20 mins in presence of NADPH by spectrofluorimetric analysis; assay type: ADME
[10] = Selectivity ratio of IC50 for CYP1A1 in TCDD-exposed human MCF-7 cells to IC50 for CYP1B1 in TCDD-exposed human MCF-7 cells
[11] = biological target: T1, Cytochrome P450 1A1; assay: Mixed type inhibition of human hepatic microsomes CYP1A1 expressed in supersomes coexpressing NADPH-cytochrome P450 reductase using 7-Ethoxyresorufin as substrate measured every 30 secs for 3 mins in presence of NADPH by spectrofluorometric analysis; assay type: ADME
[12] = biological target: T3, Cytochrome P450 1B1; assay: Mixed type inhibition of human hepatic microsomes CYP1B1 expressed in supersomes coexpressing NADPH-cytochrome P450 reductase using 7-Ethoxyresorufin as substrate measured every 30 secs for 3 mins in presence of NADPH by spectrofluorometric analysis

Compound: CCCCCc1cc(O)c2c(c1)OC(C)(C)c1ccc(C)cc1-2 [CANNABINOL]
- Ki [1]: 541 nM
- Ki [2]: 79 nM
- Ki [3]: 148 nM

Compound: C=C(C)C1CC=C(CO)CC1 (configuration not stated)
- Ki [4]: 2000 nM

Compound: COc1cc(/C=C/c2ccc(OC)cc2OC)cc(OC)c1
- IC50 [5]: 3000 nM

Compound: CCCCCc1cc(O)c2c(c1)OC(C)(C)[C@@H]1CCC(C)=C[C@@H]21 [DRONABINOL]
- Ki [6]: 2470 to 7540 nM

Compound: Br.Cc1ccc(C(=O)Cn2c3c(sc2=N)CCCC3)cc1
- Ki [7]: 4.38 nM
- IC50 [8]: 20.6 nM
- IC50 [9]: 1500 nM
- Ratio IC50 [10]: 73

Compound: COc1ccc2[nH]cc(CCNC(C)=O)c2c1 [MELATONIN]
- Ki [11]: 59000 nM
- Ki [12]: 14000 nM
